US8637510B2, “Morpholinothiazoles as alpha 7 positive allosteric modulators” (Janssen Pharmaceutica NV, priority 2009, dated 2014)

Experiments:
human alpha 7-wt nAChR = biological target: T1, human alpha 7-wt nAChR (Homo sapiens, UniProt P36544); test: Ca2+ flux imaging (FDSS) (Protocol B); format: cell-based; details: for Emax: efficacy of 100 μM choline defined as 100% in the absence of a PAM, read-out: a7-PAM-G_[33]_Eff_Curve_FI % Efficacy; for EC50: potentiation of 100 μM choline, compounds 0.01 μM to 30 μM, read-out: a7-PAM-G_[33]_pEC50 pEC50 (converted)
T1 construct: expressed in transfected cells
Summary of the method: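 Fluo-4AM-loaded cells expressing human α7-wt nAChR, in HBSS with 10 mM HEPES, 5 mM CaCl2, 0.1% BSA, received compound (0.01–30 μM), typically 10 min before 100 μM choline, with calcium flux read in real time. Potentiation is relative to choline alone (100%); EC50 from sigmoidal curves.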

[1] = biological target: T2, human alpha 7-wt nAChR-expressing GH4C1 cells (Homo sapiens, UniProt P36544); test: Patch-clamp current recording (whole-cell voltage-clamp, PAM type classification); format: cell-based; set-up: key: Type 0 compounds minimally change the effect size of the current elicited by 1 mM choline.; Type 1 compounds enhance the effect size of the current elicited by 1 mM choline but minimally alter the kinetics of the receptor.; Type 2 compounds enhance the effect size of the current elicited by 1 mM choline while reducing the rate and/or the extent of desensitization.; Type 3 compounds enhance the effect size of the current elicited by 1 mM choline. When tested at higher concentrations up to 10 μM they completely inhibit desensitization; Type 4 compounds allow for an initial desensitization of the receptor followed by a re-opening of the receptor during agonist application; details: 1 mM choline
T2 construct: expressed in transfected cells
Protocol: The compounds of the present invention are classified as type 1-4, based on qualitative kinetic properties, as determined by whole-cell voltage-clamp recordings. This classification is based on the effect of an alpha 7 PAM compound, as described hereinbefore, on the signal elicited by an agonist application. In particular, said agonist is choline at a concentration of 1 mM. In a preferred experimental setting, said alpha 7 PAM compound and choline are simultaneously applied to the cell, as described hereinafter. Desensitization is defined as the closure of the receptor upon activation during the application of the agonist in whole-cell voltage-clamp electrophysiology measurements seen as the reduction of the […] current after initial activation by the agonist.
The definition of the PAM types 1-4 is described hereinafter: • Type 0 compounds minimally change the effect size of the current elicited by 1 mM choline. • Type 1 compounds enhance the effect size of the current elicited by 1 mM choline but minimally alter the kinetics of the receptor. In particular, the rate and the extent of desensitization and of deactivation of the receptor elicited by the agonist is not affected. The compound-modulated response to 1 mM choline, therefore, is close to a linear scaling of the 1 mM choline response in absence of the alpha 7 PAM compound. • Type 2 compounds enhance the effect size of the current elicited by 1 mM choline while reducing the rate and/or the extent of desensitization. Deactivation of the receptor is generally unaffected. • Type 3 compounds enhance the effect size of the current elicited by 1 mM choline. […] Deactivation of the receptor may be slowed down • Type 4 compounds allow for an initial desensitization of the receptor followed by a re-opening of the receptor during agonist application. At low-potency concentrations of the alpha 7 PAM compound, the agonist-induced activation, which is followed by desensitization, can still be separated from the compound-induced re-opening as an initial inward current-maximum. At higher potency concentrations of the alpha 7 PAM compound, the re-opening occurs faster than the closure due to desensitization so that the initial current-maximum disappears.
A compound was considered to have interesting PAM-like activity when the potentiation of the peak current was at least 200% compared to the control choline response (=100%). Such compounds are classified as belonging to a particular PAM type in the Experimental Part. Compounds not meeting the condition are not classified as belonging to a particular PAM-type.
The compounds also have a potentiating effect on the response to choline when measured by whole-cell patch clamp electrophysiology in GH4C1 cells stably over-expressing the human wild-type alpha 7 receptor.
Patch-clamp recording from mammalian cells has provided a powerful means of assessing the function of membrane-bound proteins thought to be subunits of ligand-gated ion channels. Activation of such proteins by endogenous or exogenous ligands cause opening of a pore associated with the receptor through which ions flow down their electrochemical gradient. In the case of the human alpha 7-wt nAChR-expressing GH4C1 recombinant cell line the preferential permeability to calcium of this receptor means that calcium flows into the cell upon activation by ACh, choline and other nicotinic ligands giving rise to a calcium current. Since this receptor rapidly desensitizes in the presence of agonist it is important that an application system is used which is capable of very rapid switching of solutions (<100 ms) to prevent partial or full desensitisation of receptor responses coincident with the time of agonist application. Consequently, a second convenient technique to assess the enhancement of nicotinic efficacy is a patch-clamp recording from human alpha 7-wt nAChR-expressing GH4C1 cells coupled with a rapid-application system. […]

T1 sequence (P36544 23-502): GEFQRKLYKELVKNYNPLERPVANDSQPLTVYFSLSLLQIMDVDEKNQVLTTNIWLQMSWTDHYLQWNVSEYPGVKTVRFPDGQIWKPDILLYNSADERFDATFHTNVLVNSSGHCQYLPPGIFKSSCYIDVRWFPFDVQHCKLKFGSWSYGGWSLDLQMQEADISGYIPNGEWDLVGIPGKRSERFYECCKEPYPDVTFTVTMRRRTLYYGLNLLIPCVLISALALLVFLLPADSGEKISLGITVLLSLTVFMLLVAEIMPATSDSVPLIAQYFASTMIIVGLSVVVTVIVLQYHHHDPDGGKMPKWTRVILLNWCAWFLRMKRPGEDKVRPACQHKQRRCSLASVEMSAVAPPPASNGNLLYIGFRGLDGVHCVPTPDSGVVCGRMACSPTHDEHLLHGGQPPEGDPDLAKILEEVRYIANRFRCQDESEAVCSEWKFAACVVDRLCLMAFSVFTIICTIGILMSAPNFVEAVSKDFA
T2 sequence (P36544 23-502): as above

| Emax (human alpha 7-wt nAChR) [%] | EC50 (human alpha 7-wt nAChR) [µM] | melting point [°C] | Compound | PAM_Type PAM type [1] |
| --- | --- | --- | --- | --- |
| 927 | 1.41 | 184 | Cc1cc(C(=O)NCc2nc(N3C[C@@H](C)O[C@@H](C)C3)sc2-c2cc(C)nc(C)c2)on1 [Compound 4, N-[[2-[(2R,6S)-2,6-dimethyl-4-morpholinyl]-5-(2,6-dimethyl-4-pyridinyl)-4-thiazolyl]methyl]-3-methyl-5-isoxazolecarboxamide] | 2 |
| 733 | 0.501 | 180 | Cc1cc(-c2sc(N3C[C@@H](C)O[C@@H](C)C3)nc2CNC(=O)c2ncsc2C)cc(C)n1 [Compound 178, N-[[2-[(2R,6S)-2,6-dimethyl-4-morpholinyl]-5-(2,6-dimethyl-4-pyridinyl)-4-thiazolyl]methyl]-5-methyl-4-thiazolecarboxamide] | 0 |
| 965 | 0.1 | – | Cc1cc(-c2sc(N3C[C@@H](C)O[C@@H](C)C3)nc2CNC(=O)C(C)C)cc(C)n1 [Compound 40, N-[[2-[(2R,6S)-2,6-dimethyl-4-morpholinyl]-5-(2,6-dimethyl-4-pyridinyl)-4-thiazolyl]methyl]-2-methyl-propanamide] | 2 |
| – | 0.724 | – | Cc1cc(-c2sc(N3CCOC(C)C3)nc2CNC(=O)c2conc2C)cc(C)n1 (single isomer, unassigned) [Compound 73, N-[[5-(2,6-dimethyl-4-pyridinyl)-2-[(2R*)-2-methyl-4-morpholinyl]-4-thiazolyl]methyl]-3-methyl-4-isoxazolecarboxamide] | 2 |
| 526 | 0.0174 | – | Cc1cc(-c2sc(N3C[C@@H](C)O[C@@H](C)C3)nc2CNC(=O)c2ccc(F)cc2C)cc(C)n1 [Compound 24, N-[[2-[(2R,6S)-2,6-dimethyl-4-morpholinyl]-5-(2,6-dimethyl-4-pyridinyl)-4-thiazolyl]methyl]-4-fluoro-2-methyl-benzamide] | 2 |
| 422 | 0.38 | – | Cc1cc(-c2sc(N3C[C@@H](C)O[C@@H](C)C3)nc2CNC(=O)c2cccc(F)c2F)cc(C)n1 [Compound 32, N-[[2-[(2R,6S)-2,6-dimethyl-4-morpholinyl]-5-(2,6-dimethyl-4-pyridinyl)-4-thiazolyl]methyl]-2,3-difluoro-benzamide] | 1 |
| 235 | 0.813 | – | Cc1cc(-c2sc(N3C[C@@H](C)O[C@@H](C)C3)nc2CNC(=O)c2c(C)noc2C)cc(C)n1 [Compound 25, N-[[2-[(2R,6S)-2,6-dimethyl-4-morpholinyl]-5-(2,6-dimethyl-4-pyridinyl)-4-thiazolyl]methyl]-3,5-dimethyl-4-isoxazolecarboxamide] | 0 |
| 411 | 0.17 | – | Cc1cc(-c2sc(N3C[C@@H](C)O[C@@H](C)C3)nc2CNC(=O)c2cc(F)cc(F)c2)cc(C)n1 [Compound 15, N-[[2-[(2R,6S)-2,6-dimethyl-4-morpholinyl]-5-(2,6-dimethyl-4-pyridinyl)-4-thiazolyl]methyl]-3,5-difluoro-benzamide] | 2 |
| 528 | 0.631 | – | Cc1cc(-c2sc(N3C[C@@H](C)O[C@@H](C)C3)nc2CNC(=O)C2CCC2)ccn1 [Compound 89, N-[[2-[(2R,6S)-2,6-dimethyl-4-morpholinyl]-5-(2-methyl-4-pyridinyl)-4-thiazolyl]methyl]-cyclobutanecarboxamide] | 2 |
| 791 | 0.871 | – | Cc1cc(-c2sc(N3C[C@@H](C)O[C@@H](C)C3)nc2CNC(=O)C2CC(=O)OC2(C)C)cc(C)n1 (stereo partly drawn) [Compound 154, N-[[2-[(2R,6S)-2,6-dimethyl-4-morpholinyl]-5-(2,6-dimethyl-4-pyridinyl)-4-thiazolyl]methyl]tetrahydro-2,2-dimethyl-5-oxo-3-furancarboxamide] | 1 |
| 594 | 0.229 | – | Cc1cc(-c2sc(N3C[C@@H](C)O[C@@H](C)C3)nc2CNC(=O)c2ccc(C(F)(F)F)cc2)cc(C)n1 [Compound 23, N-[[2-[(2R,6S)-2,6-dimethyl-4-morpholinyl]-5-(2,6-dimethyl-4-pyridinyl)-4-thiazolyl]methyl]-4-(trifluoromethyl)-benzamide] | 2 |
| 645 | 0.955 | – | Cc1cc(-c2sc(N3CCOC(C)C3)nc2CNC(=O)c2conc2C)cc(C)n1 (single isomer, unassigned) [Compound 69, N-[[5-(2,6-dimethyl-4-pyridinyl)-2-[(2S*)-2-methyl-4-morpholinyl]-4-thiazolyl]methyl]-3-methyl-4-isoxazolecarboxamide] | 2 |
| – | 0.525 | – | Cc1cc(-c2sc(N3C[C@@H](C)O[C@@H](C)C3)nc2CNC(=O)Cc2c(C)noc2C)cc(C)n1 [Compound 166, N-[[2-[(2R,6S)-2,6-dimethyl-4-morpholinyl]-5-(2,6-dimethyl-4-pyridinyl)-4-thiazolyl]methyl]-3,5-dimethyl-4-isoxazoleacetamide] | 1 |
| 924 | 0.0692 | – | Cc1cc(-c2sc(N3C[C@@H](C)O[C@@H](C)C3)nc2CNC(=O)CC(F)(F)F)cc(C)n1 [Compound 168, N-[[2-[(2R,6S)-2,6-dimethyl-4-morpholinyl]-5-(2,6-dimethyl-4-pyridinyl)-4-thiazolyl]methyl]-3,3,3-trifluoro-propanamide] | 1 |
| – | 0.525 | – | Cc1cc(-c2sc(N3C[C@@H](C)O[C@@H](C)C3)nc2CNC(=O)COCC(F)(F)F)cc(C)n1 [Compound 175, N-[[2-[(2R,6S)-2,6-dimethyl-4-morpholinyl]-5-(2,6-dimethyl-4-pyridinyl)-4-thiazolyl]methyl]-2-(2,2,2-trifluoroethoxy)-acetamide] | 1 |
| 464 | 2.4 | – | Cc1cc(-c2sc(N3C[C@@H](C)O[C@@H](C)C3)nc2CNC(=O)c2nc(C)oc2C)cc(C)n1 [Compound 134, N-[[2-[(2R,6S)-2,6-dimethyl-4-morpholinyl]-5-(2,6-dimethyl-4-pyridinyl)-4-thiazolyl]methyl]-2,5-dimethyl-4-oxazolecarboxamide] | 0 |
| 787 | 0.339 | – | Cc1cc(-c2sc(N3C[C@@H](C)O[C@@H](C)C3)nc2CNC(=O)c2ccc(F)c(F)c2F)cc(C)n1 [Compound 14, N-[[2-[(2R,6S)-2,6-dimethyl-4-morpholinyl]-5-(2,6-dimethyl-4-pyridinyl)-4-thiazolyl]methyl]-2,3,4-trifluoro-benzamide] | 2 |
| – | 1.23 | – | Cc1cc(-c2sc(N3C[C@@H](C)O[C@@H](C)C3)nc2CNC(=O)c2oncc2C)cc(C)n1 [Compound 148, N-[[2-[(2R,6S)-2,6-dimethyl-4-morpholinyl]-5-(2,6-dimethyl-4-pyridinyl)-4-thiazolyl]methyl]-4-methyl-5-isoxazolecarboxamide] | 0 |
